# Test results reported in ChEMBL document CHEMBL1201862, “PubChem BioAssay data set” (2004).
# Active and inactive are the calls of the source.
# Key:
# [1] = biological target: T1, Latent membrane protein 1 (Human herpesvirus 4 (strain B95-8), UniProt P03230); test: TES1-eGFP NF-kB reporter inhibition versus Tet-On dsRED, dose response, selectivity assay for LMP1 NF-kB inhibitor project, imaging, HEK293T, dual-color eGFP/dsRED, cherry-picks (AID 588398); type: functional, cell-based
# T1 sequence (P03230 whole entry): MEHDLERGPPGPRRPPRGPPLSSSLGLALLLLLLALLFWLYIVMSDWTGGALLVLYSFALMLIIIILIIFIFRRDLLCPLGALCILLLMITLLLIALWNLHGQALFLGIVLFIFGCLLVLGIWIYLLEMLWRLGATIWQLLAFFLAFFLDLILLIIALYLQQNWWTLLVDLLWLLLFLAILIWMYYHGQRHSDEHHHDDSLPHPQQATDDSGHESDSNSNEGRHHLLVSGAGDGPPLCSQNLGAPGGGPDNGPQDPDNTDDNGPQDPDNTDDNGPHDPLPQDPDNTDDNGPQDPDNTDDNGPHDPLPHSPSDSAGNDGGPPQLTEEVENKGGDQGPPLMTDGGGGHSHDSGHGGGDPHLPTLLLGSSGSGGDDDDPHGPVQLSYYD
# HEK293 = test: inhibitors of LMP1-driven NF-kB reporter, dose response, cell-based, HEK293, luciferase, cherry-pick (AID 588343); type: functional; settings: Homo sapiens
# [2] = biological target: Delta-type opioid receptor (Homo sapiens, UniProt P41143); test: Counterscreen for agonists of heterodimerization of the mu 1 (OPRM1) and delta 1 (OPRD1) opioid receptors: Luminescence-based cell-based high throughput dose response assay to identify agonists of OPRD1 homodimerization. [Related pubchem assays (depositor defined):AID504326, AID504355, AID504692, AID504904, AID504905]; type: functional
# Sequence of Delta-type opioid receptor (P41143 whole entry): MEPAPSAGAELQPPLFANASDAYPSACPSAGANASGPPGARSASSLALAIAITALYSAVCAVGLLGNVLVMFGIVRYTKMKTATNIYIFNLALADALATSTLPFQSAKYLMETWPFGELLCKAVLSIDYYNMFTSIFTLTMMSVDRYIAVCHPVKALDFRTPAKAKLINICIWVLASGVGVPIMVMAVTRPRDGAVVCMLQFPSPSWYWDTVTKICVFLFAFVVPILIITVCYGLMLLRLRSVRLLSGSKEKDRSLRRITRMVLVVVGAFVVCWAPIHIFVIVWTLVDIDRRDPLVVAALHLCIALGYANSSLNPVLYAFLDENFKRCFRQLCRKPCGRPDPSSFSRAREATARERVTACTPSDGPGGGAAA
# Mu-type opioid receptor = Mu-type opioid receptor (Homo sapiens, UniProt P35372); test: Counterscreen for agonists of heterodimerization of the mu 1 (OPRM1) and delta 1 (OPRD1) opioid receptors: Luminescence-based cell-based high throughput dose response assay to identify agonists of OPRM1 homodimerization.; type: functional;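 note: U2OS cells expressing OPRM1 and beta-arrestin as split beta-galactosidase partners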
# Sequence of Mu-type opioid receptor (P35372 whole entry): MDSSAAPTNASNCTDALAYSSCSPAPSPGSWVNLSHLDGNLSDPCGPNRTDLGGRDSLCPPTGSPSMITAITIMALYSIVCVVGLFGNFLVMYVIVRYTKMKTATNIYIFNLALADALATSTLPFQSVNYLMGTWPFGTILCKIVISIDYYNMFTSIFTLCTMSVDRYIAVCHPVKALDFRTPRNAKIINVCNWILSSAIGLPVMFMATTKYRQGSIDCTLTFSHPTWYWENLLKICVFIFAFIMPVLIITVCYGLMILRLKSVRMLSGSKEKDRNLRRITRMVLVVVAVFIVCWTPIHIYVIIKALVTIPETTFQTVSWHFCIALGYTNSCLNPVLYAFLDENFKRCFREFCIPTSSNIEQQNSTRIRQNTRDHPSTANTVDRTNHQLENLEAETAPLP
# [3] = biological target: 5-hydroxytryptamine receptor 5A (Homo sapiens, UniProt P47898); test: Counterscreen for agonists of OPRM1-OPRD1 heterodimerization: luminescence-based cell-based high throughput dose response assay to identify agonists of 5-hydroxytryptamine (serotonin) 5A receptor (HTR5A). [Related pubchem assays (depositor defined):AID504326, AID504355, AID504692, AID504904, AID504905]; type: functional
# Sequence of 5-hydroxytryptamine receptor 5A (P47898 whole entry): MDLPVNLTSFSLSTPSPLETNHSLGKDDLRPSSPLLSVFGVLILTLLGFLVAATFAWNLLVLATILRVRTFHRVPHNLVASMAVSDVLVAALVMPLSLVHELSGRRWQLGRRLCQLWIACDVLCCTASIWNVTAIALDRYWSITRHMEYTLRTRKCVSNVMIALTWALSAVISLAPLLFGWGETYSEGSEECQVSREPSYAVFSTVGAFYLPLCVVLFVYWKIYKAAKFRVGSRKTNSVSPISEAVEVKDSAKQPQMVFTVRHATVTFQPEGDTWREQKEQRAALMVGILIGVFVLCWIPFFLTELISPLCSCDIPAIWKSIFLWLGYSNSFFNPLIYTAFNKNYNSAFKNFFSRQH
# Melanocortin receptor 4 [4] = biological target: T2, Melanocortin receptor 4 (Homo sapiens, UniProt P32245); test: MC4R antagonist potency on cAMP, dose response, cell-based, TR-FRET, biased antagonists (AID 602298); type: functional;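 note: antagonist potency against agonist-stimulated cAMP production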
# T2 sequence (P32245 whole entry): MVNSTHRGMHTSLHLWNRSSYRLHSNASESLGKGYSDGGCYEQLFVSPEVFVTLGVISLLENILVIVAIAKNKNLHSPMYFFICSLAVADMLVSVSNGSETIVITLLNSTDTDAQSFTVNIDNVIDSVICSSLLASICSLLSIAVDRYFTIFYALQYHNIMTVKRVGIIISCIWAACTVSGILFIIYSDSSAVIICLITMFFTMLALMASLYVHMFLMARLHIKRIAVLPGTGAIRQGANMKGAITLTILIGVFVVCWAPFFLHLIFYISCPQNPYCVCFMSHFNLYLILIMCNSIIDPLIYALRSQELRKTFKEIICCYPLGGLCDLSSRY
# [5] = nonselective inhibitors of cellular cAMP signaling, dose response, counter-screen for MC4R biased antagonist project, cell-based, TR-FRET cAMP detection (AID 602305); type: functional;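 note: U2OS cells stimulated with forskolin near its EC80 as the cAMP inducer; potency is for inhibition of forskolin-stimulated cAMP signaling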
# Melanocortin receptor 4 [6] = biological target: T2, Melanocortin receptor 4; type: functional, cell-based
# Exodeoxyribonuclease V = biological target: T3, Exodeoxyribonuclease V (Escherichia coli (strain K12), UniProt P04993+P07648+P08394); test: E. coli RecBCD inhibitors, dose response, counter-screen for AddAB inhibitor project, absorbance, V66 E. coli, mutant T4 phage (AID 492957); type: functional, cell-based, Escherichia coli str. K-12 substr. MG1655
# T3 sequence (P04993 whole entry): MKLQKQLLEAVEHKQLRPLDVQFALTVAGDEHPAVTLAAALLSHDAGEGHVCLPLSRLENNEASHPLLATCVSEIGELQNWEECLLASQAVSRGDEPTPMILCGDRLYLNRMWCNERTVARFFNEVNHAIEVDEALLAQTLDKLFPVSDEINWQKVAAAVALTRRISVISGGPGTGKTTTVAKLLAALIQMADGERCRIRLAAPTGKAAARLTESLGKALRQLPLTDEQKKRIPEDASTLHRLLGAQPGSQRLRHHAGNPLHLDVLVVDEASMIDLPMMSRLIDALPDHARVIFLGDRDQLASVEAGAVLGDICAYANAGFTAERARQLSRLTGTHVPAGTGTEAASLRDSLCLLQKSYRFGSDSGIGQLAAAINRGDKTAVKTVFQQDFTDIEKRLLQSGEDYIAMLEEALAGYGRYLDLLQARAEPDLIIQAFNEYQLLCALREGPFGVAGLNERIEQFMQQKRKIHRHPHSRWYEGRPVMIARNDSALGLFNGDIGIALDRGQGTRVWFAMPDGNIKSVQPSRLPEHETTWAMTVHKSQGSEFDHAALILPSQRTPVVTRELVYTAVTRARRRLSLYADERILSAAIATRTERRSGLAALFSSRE
# T3 sequence (P07648 whole entry): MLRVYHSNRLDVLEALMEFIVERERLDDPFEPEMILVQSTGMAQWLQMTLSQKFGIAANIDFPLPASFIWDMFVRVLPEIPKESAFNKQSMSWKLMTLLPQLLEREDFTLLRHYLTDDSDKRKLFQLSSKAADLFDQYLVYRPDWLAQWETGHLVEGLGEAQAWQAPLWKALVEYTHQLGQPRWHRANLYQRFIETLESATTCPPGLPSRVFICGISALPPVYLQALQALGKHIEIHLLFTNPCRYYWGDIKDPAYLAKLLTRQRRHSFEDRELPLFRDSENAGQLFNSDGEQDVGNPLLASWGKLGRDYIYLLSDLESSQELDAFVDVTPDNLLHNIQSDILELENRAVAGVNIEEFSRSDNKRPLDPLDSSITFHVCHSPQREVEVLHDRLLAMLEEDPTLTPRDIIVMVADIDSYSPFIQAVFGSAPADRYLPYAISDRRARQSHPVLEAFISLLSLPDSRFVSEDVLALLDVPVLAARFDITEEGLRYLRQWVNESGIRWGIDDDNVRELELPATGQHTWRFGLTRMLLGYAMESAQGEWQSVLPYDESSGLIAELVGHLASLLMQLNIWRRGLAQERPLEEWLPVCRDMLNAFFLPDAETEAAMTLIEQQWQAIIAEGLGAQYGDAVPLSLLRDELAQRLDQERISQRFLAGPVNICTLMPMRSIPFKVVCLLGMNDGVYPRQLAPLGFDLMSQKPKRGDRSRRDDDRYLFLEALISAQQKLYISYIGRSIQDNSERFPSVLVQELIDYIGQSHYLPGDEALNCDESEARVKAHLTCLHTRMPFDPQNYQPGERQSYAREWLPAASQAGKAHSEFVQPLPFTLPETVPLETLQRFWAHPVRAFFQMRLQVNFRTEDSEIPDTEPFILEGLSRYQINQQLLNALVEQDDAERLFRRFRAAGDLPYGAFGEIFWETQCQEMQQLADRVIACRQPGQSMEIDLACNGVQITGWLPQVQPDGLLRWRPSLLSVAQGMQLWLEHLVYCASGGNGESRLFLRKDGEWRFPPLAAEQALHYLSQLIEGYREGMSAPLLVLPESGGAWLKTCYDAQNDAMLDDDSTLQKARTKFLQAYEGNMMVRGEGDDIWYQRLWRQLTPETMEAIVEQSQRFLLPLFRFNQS
# T3 sequence (P08394 whole entry): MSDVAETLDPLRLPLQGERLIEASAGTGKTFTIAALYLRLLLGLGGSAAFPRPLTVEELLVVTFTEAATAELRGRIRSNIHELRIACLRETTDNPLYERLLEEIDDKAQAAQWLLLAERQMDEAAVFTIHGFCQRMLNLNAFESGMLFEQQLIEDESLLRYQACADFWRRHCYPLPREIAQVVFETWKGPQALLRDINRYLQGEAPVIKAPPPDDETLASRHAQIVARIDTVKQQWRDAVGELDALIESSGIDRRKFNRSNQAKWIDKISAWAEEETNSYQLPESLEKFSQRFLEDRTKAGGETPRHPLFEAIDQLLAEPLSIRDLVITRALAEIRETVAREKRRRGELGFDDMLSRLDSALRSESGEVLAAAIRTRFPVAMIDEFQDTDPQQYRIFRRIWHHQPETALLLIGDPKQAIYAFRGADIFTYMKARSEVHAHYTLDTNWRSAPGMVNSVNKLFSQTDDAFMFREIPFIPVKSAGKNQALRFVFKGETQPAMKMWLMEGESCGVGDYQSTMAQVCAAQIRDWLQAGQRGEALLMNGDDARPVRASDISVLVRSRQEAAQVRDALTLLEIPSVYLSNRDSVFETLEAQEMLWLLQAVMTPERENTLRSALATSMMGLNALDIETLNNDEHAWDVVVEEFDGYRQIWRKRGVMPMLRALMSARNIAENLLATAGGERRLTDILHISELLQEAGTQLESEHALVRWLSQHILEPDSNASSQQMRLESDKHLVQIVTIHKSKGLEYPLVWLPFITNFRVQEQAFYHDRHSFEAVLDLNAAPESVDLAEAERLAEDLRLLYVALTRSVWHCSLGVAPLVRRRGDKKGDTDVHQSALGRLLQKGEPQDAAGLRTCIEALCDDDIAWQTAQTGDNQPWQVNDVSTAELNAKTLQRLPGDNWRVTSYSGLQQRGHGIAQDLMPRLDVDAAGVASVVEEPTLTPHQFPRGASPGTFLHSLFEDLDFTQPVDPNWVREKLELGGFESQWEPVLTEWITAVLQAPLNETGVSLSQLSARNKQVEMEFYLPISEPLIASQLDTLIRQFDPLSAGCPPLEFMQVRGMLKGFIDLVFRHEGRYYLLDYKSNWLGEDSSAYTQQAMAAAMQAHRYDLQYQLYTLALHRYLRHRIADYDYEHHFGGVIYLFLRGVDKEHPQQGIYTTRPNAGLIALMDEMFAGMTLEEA
# [7] = Counterscreen for AddAB inhibitors: absorbance-based bacterial cell-based high throughput dose response assay for inhibitors of bacterial viability. [Related pubchem assays (depositor defined):AID435030, AID449728, AID449731, AID488942, AID488955, AID488956]; type: functional
# Vero = test: cells; type: functional; settings: Chlorocebus sabaeus
# BJ [8] = test: cytotoxicity toward BJ-TERT-LT-ST fibroblasts, dose response, cell-based, RAS-independent, luminescence (AID 1935); type: functional; settings: Homo sapiens;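 note: BJ fibroblasts immortalized with TERT plus LT and ST oncogenes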
# [9] = cytotoxicity toward DRD oncogenic fibroblasts, dose response, cell-based, non-viral oncogenic, luminescence (AID 1934); type: functional; settings: Homo sapiens
# BJ [10] = test: cytotoxicity toward BJ-TERT fibroblasts, dose response, cell-based, RAS-independent, luminescence (AID 1933); type: functional; settings: Homo sapiens
# BJ [11] = test: cells; type: functional, cell-based; settings: Homo sapiens
# [12] = biological target: T4, Polyadenylate-binding protein 1 (Homo sapiens, UniProt P11940); test: PABP1 MLLE–PAM2 interaction inhibitors, dose response, miRNA deadenylation inhibitor project, biochemical, fluorescence polarization, Cy5-PAM2 peptide, secondary (AID 602260); type: functional; settings: read-out: IC50_Mean
# T4 sequence (P11940 whole entry): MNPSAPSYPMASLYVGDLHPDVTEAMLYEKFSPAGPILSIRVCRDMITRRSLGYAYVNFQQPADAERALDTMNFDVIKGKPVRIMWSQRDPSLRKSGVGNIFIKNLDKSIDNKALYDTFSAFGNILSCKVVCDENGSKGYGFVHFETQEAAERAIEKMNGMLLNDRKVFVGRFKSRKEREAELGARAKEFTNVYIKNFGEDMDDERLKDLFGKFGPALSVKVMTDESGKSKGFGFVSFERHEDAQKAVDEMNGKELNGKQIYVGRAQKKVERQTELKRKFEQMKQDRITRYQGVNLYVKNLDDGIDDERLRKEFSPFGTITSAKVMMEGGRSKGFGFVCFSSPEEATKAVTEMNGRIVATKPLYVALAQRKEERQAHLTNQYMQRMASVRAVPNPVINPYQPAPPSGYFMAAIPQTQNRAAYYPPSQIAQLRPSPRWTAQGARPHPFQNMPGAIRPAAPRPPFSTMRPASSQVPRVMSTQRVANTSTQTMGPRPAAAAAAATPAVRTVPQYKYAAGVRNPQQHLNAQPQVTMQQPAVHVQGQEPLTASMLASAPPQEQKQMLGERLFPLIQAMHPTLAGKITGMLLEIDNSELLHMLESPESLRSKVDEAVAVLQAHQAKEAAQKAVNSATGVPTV
# Interleukin-8 [13] = biological target: T5, Interleukin-8 (Homo sapiens, UniProt P10145); test: Dose Response confirmation of uHTS small molecule hits for cystic fibrosis induced NFkb Inhibitors in a TNFa-induced IL8 counterscreen.; type: functional; settings: read-out: IC50_Mean
# T5 sequence (P10145 whole entry): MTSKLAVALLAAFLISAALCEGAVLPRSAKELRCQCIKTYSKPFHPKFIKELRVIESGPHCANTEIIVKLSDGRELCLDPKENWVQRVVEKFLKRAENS
# [14] = biological target: T4, Polyadenylate-binding protein 1; test: PABP1 MLLE–PAM2 binding inhibitor potency, dose response, biochemical, fluorescence polarization, FITC-PAM2 peptide (AID 602259); type: functional; settings: read-out: IC50_Mean
# Interleukin-8 [15] = biological target: T5, Interleukin-8; test: Dose Response confirmation of uHTS small molecule hits for cystic fibrosis induced NFkb Inhibitors in a PAF-induced IL8 counterscreen.; type: functional; settings: read-out: IC50_Mean
smiles,measurement,setting,value
O=C1NC(c2cccc(OCc3ccccc3)c2)Nc2ccccc21 (stereo unspecified),AC50,[1],2.82 µM (active)
same,AC50,HEK293,84 µM (active)
CN(C)CCCN(C(=O)c1ccc(S(=O)(=O)N(C)Cc2ccccc2)cc1)c1nc2c(F)cccc2s1,EC50,[2],> 30.8 µM (inactive)
same,EC50,Mu-type opioid receptor,26.2 µM (inactive)
same,EC50,[3],> 92.5 µM (inactive)
CCN(CC)S(=O)(=O)c1ccc(N2CCOCC2)c(NC(=O)c2ccccc2F)c1,IC50,Melanocortin receptor 4 [4],> 64.6 µM (inactive)
same,IC50,[5],> 64.6 µM (inactive)
CCCCCCCCNS(=O)(=O)CCNCCc1ccccc1,EC50,Melanocortin receptor 4 [6],> 89.1 µM (inactive)
CCOc1cccc(/C=N/NC(=O)c2cc(-c3cccn3C)[nH]n2)c1O,IC50,Exodeoxyribonuclease V,> 119 µM (inactive)
same,IC50,[7],> 119 µM (inactive)
CCOc1ccc(-c2cc(C(=O)N/N=C/c3ccc(O)cc3)c3ccccc3n2)cc1,CC50,Vero,14.9 µM (active)
same,AC50,HEK293,5.12 µM (active)
COc1cc([N+](=O)[O-])ccc1NC(=S)NC(=O)CC(C)(C)C,IC50,Melanocortin receptor 4 [4],> 64.6 µM (inactive)
same,IC50,[5],> 64.6 µM (inactive)
CCc1ccc2nc(N(CCCN(C)C)C(=O)c3ccc(S(=O)(=O)N(C)C4CCCCC4)cc3)sc2c1,EC50,[2],> 92.5 µM (inactive)
same,EC50,Mu-type opioid receptor,> 92.5 µM (inactive)
same,EC50,BJ [8],7.58 µM (active)
same,EC50,[9],7.91 µM (active)
same,EC50,BJ [10],6.21 µM (inconclusive)
same,EC50,[3],> 92.5 µM (inactive)
same,EC50,BJ [11],13.4 µM (active)
CCOC(=O)c1c(NC(=O)C2c3ccccc3Oc3ccccc32)sc(C(N)=O)c1C,IC50,Melanocortin receptor 4 [4],> 21.5 µM (inactive)
same,IC50,[5],32.5 µM (inactive)
CSCCC(/C(O)=C(\C#N)c1nc2ccccc2[nH]1)N1C(=O)c2ccccc2C1=O (stereo unspecified),EC50,[2],> 92.4 µM (inactive)
same,EC50,Mu-type opioid receptor,> 92.4 µM (inactive)
same,EC50,[3],> 92.4 µM (inactive)
CC(=O)Nc1cc(-c2cccc(F)c2)cn2c(-c3ccc(F)cc3)cnc12,EC50,Melanocortin receptor 4 [6],> 89.2 µM (inactive)
O=S1(=O)CCC(NC(=S)SCCOc2ccccc2)C1 (stereo unspecified),IC50,[12],> 66 µM (inactive)
same,IC50,Interleukin-8 [13],3.66 µM (active)
same,IC50,[14],> 66 µM (inactive)
same,IC50,Interleukin-8 [15],3.07 µM (active)
